Laboratory results taken from patent publication US12528791B2 (priority 2019, dated 2026).

Molecular target: T1, THR-β/RXR-α (Homo sapiens, UniProt P10828)
T1 sequence (P10828 202-461 limits assumed): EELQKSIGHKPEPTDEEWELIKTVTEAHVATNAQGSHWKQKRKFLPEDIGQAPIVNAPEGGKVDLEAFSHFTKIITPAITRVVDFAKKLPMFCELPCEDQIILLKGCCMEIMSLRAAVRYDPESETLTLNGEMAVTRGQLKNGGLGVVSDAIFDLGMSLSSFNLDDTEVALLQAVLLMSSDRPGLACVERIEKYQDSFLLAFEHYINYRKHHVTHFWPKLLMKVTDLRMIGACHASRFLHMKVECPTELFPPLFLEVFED
T1 sequence (P19793 225-462 partner limits assumed): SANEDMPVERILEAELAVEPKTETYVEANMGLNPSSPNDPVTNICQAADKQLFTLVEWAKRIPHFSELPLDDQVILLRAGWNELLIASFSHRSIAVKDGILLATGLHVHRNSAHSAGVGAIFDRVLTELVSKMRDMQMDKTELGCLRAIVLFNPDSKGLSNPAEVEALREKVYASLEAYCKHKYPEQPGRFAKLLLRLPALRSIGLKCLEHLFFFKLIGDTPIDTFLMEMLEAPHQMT
T1 sequence (Q15596 679-703 partner limits assumed): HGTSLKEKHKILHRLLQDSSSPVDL
Format: biochemical
Conditions: RXR heterodimer assay; compound activity normalized to T3 for THR-β/RXR-α and THR-α/RXR-α

Row | SMILES | THRβ-Selectivity
1 | N#Cc1nn(-c2cc(Cl)c(Oc3ccc4nc(C5CC5)ccc4c3)c(Cl)c2)c(=O)[nH]c1=O [Example 26, 2-(3,5-dichloro-4-((2-cyclopropylquinolin-6-yl)oxy)phenyl)-3,5-dioxo-2,3,4,5-tetrahydro-1,2,4-triazine-6-carbonitrile] | 3.3
2 | CC(C)n1c(=O)[nH]c2ccc(Oc3c(Cl)cc(NC(=O)c4noc(=O)[nH]4)cc3Cl)cc21 [Example 30, N-(3,5-dichloro-4-((3-isopropyl-2-oxo-2,3-dihydro-1H-benzo[d]imidazol-5-yl)oxy)phenyl)-5-oxo-4,5-dihydro-1,2,4-oxadiazole-3-carboxamide] | 9.9
3 | CCc1ccnc2ccc(Oc3c(Cl)cc(-n4nc(C#N)c(=O)[nH]c4=O)cc3Cl)cc12 [Example 35, 2-(3,5-dichloro-4-((4-ethylquinolin-6-yl)oxy)phenyl)-3,5-dioxo-2,3,4,5-tetrahydro-1,2,4-triazine-6-carbonitrile] | 10.2
4 | CCc1ccnc2ccc(Oc3c(Cl)cc(NC(=O)c4noc(=O)[nH]4)cc3Cl)cc12 [Example 36, N-(3,5-dichloro-4-((4-ethylquinolin-6-yl)oxy)phenyl)-5-oxo-4,5-dihydro-1,2,4-oxadiazole-3-carboxamide] | 7.1
5 | CC(C)(C)n1cnc2ccc(Oc3c(Cl)cc(NC(=O)c4noc(=O)[nH]4)cc3Cl)cc21 [Example 37, N-(4-((1-(tert-butyl)-1H-benzo[d]imidazol-6-yl)oxy)-3,5-dichlorophenyl)-5-oxo-4,5-dihydro-1,2,4-oxadiazole-3-carboxamide] | 8.3
6 | CC(C)(C)n1cnc2ccc(Oc3c(Cl)cc(-n4nc(C#N)c(=O)[nH]c4=O)cc3Cl)cc21 [Example 38, 2-(4-((1-(tert-butyl)-1H-benzo[d]imidazol-6-yl)oxy)-3,5-dichlorophenyl)-3,5-dioxo-2,3,4,5-tetrahydro-1,2,4-triazine-6-carbonitrile] | 8.4
7 | O=C(Nc1cc(Cl)c(Oc2ccc3nc4n(c3c2)CCCO4)c(Cl)c1)c1noc(=O)[nH]1 [Example 39, N-(3,5-dichloro-4-((3,4-dihydro-2H-benzo[4,5]imidazo[2,1-b][1,3]oxazin-7-yl)oxy)phenyl)-5-oxo-4,5-dihydro-1,2,4-oxadiazole-3-carboxamide] | 5.1
8 | N#Cc1nn(-c2cc(Cl)c(Oc3ccc4nc5n(c4c3)CCCO5)c(Cl)c2)c(=O)[nH]c1=O [Example 40, 2-(3,5-dichloro-4-((3,4-dihydro-2H-benzo[4,5]imidazo[2,1-b][1,3]oxazin-7-yl)oxy)phenyl)-3,5-dioxo-2,3,4,5-tetrahydro-1,2,4-triazine-6-carbonitrile] | 11.6
9 | CC1(n2cnc3ccc(Oc4c(Cl)cc(NC(=O)c5noc(=O)[nH]5)cc4Cl)cc32)CC1 [Example 43, N-(3,5-dichloro-4-((1-(1-methylcyclopropyl)-1H-benzo[d]imidazol-6-yl)oxy)phenyl)-5-oxo-4,5-dihydro-1,2,4-oxadiazole-3-carboxamide] | 11.8
10 | CC1(n2cnc3ccc(Oc4c(Cl)cc(-n5nc(C#N)c(=O)[nH]c5=O)cc4Cl)cc32)CC1 [Example 44, 2-(3,5-dichloro-4-((1-(1-methylcyclopropyl)-1H-benzo[d]imidazol-6-yl)oxy)phenyl)-3,5-dioxo-2,3,4,5-tetrahydro-1,2,4-triazine-6-carbonitrile] | 10.1
11 | O=C(Nc1cc(Cl)c(Oc2ccc3nccc(C4CC4)c3c2)c(Cl)c1)c1noc(=O)[nH]1 [Example 51, N-(3,5-dichloro-4-((4-cyclopropylquinolin-6-yl)oxy)phenyl)-5-oxo-4,5-dihydro-1,2,4-oxadiazole-3-carboxamide] | 8.1
12 | N#Cc1nn(-c2cc(Cl)c(Oc3ccc4nccc(C5CC5)c4c3)c(Cl)c2)c(=O)[nH]c1=O [Example 52, 2-(3,5-dichloro-4-((4-cyclopropylquinolin-6-yl)oxy)phenyl)-3,5-dioxo-2,3,4,5-tetrahydro-1,2,4-triazine-6-carbonitrile] | 11.9
